Article PMC4871512, “Drug-Based Lead Discovery: The Novel Ablative Antiretroviral Profile of Deferiprone in HIV-1-Infected Cells and in HIV-Infected Treatment-Naive Subjects of a Double-Blind, Placebo-Controlled, Randomized Exploratory Trial” (PLoS ONE, 2016)
Where two headings read alike, the source gives them in different places.

Assays:
[1] = tested on: HIV-infected peripheral blood mononuclear cells; assay: Apoptotic DNA fragmentation by TUNEL in single-donor non-replenished PBMC cultures; type: cell-based, human; settings: 200 μM deferiprone
Experimental: Fig 2 Effect of deferiprone in HIV-infected primary cells: Apoptotic DNA fragmentation, deoxyhypusyl-eIF5A accumulation, and DOHH activity. Apoptotic DNA fragmentation (Panel A) was detected by terminal deoxynucleotide transferase dUTP nick end labeling (TUNEL) of single-donor peripheral blood mononuclear cells, maintained in short-term non-replenished cultures as described. Cells were left uninfected and/or untreated; or infected immediately after plating with clinical HIV-1 isolate and 12 hours after infection, treated with 200 μM deferiprone. […] The dose-effect curve for inhibition of cellular DOHH by increasing deferiprone concentrations in short-term non-replenished single-donor cultures (Panel C) was calculated from the accumulation of its ^3H-labeled substrate and the decrease of its ^3H-labeled product; error bars are at the size of the graph symbols and not shown. […]
Cell-free supernatants were used for p24 and HIV-1 RNA measurements. p24 core antigen in the supernatant was quantified by ELISA (Retrotek HIV-1 p24®; ZeptoMetrix Corp.; Buffalo, NY). HIV-1 RNA copy number in the supernatant of PBMC cultures and in plasma of trial subjects enrolled in the exploratory deferiprone trial was determined with a PCR-based and FDA-approved assay (Amplicor HIV-1 Monitor®; Roche Diagnostics Corp.; Indianapolis, IN). […]

[2] = Proof-of-concept trial: entry PK study, deferiprone in serum after the first oral dose; type: in vivo, human; settings: for Cmax: human, serum
Source text: Eligible for enrollment were volunteers of both genders, between 18 and 60 years old, healthy or HIV-infected with CD4 count ≥ 300/mm^3, viral load of ≥ 10,000 copies/ml, and absence of active infectious disease; AIDS-defining condition; febrile illness; liver or kidney disease; hypersensitivity to test material; and medication requirement. The protocol involved a screening visit; a pharmacokinetic and antiretroviral study requiring admission to a specialized Phase I research unit for a week of on-drug treatment, with multiple blood draws from a peripheral vein after oral intake of the first deferiprone dose, […], and at least three repeat blood draws (first stage of protocol); an off-drug observation period of eight weeks, which comprised at least two repeat visits (second stage of protocol); and an exit visit. Enrollment complied with the applicable standard-of-care specified in the ‘Clinical Guidelines for the Management of HIV & AIDS in Adults and Adolescents’, National Department of Health, Republic of South Africa. Primary parameters included safety and tolerability (e.g. vital signs, laboratory variables, cardiac monitoring by ECG) and antiretroviral activity (e.g. RNA copies of HIV-1). Secondary parameters included pharmacokinetic variables (e.g. peak serum concentration) in serum, drawn from a peripheral vein at fixed times (0, 0.5, 1, 1.5, 2, 3, 4, 6, 9, 12) after the ingestion of the first dose on Day 1 of the study. The concentration of the nonconjugated, chelation-competent form of deferiprone in serum was determined by UV detection at 280 nm, after separation via reversed-phase HPLC under isocratic conditions. The lower limit of deferiprone quantitation was 1.466 μM, or 0.204 μg/ml. HIV-1 RNA was measured as described and used as log10-transformed parameter in all calculations.

in vitro = type: cell-based; settings: human
Experimental: The antiretroviral activity of deferiprone was tested in primary cultures of PBMCs, infected in vitro with clinical isolate or mock-infected with clinical isolate-identical cell- and virus-free medium as described. Briefly, to approximate the bi-compartmental mode of HIV-1 infection in vivo, which comprises a cell-generative compartment that provides non-infected but HIV-1 susceptible cells, and an HIV-generative compartment in which they become infected, the cultures were replenished as described with freshly obtained uninfected primary cells and medium at regular intervals, assuring identical cell number in both the treated and control cultures by computerized trypan blue exclusion analysis (Vi-CELL™; Beckman Coulter, Miami, FL); deferiprone concentrations were adjusted as indicated. This model allowed for months-long monitoring of HIV-1 parameters in productively infected cultures.

Question: With `Cc1c(O)c(=O)ccn1C` [deferiprone, 3-hydroxy-1,2-dimethylpyridin-4-one] as the molecule, how does the “DNA fragmentation in infected treated relative to infected untreated cultures” value ([1]; at 120 hours) read?
Answer: twice

Question: And the “DNA fragmentation in infected treated relative to infected untreated cultures” value ([1]; at 144 hours, P = 0.001)?
Answer: three times as high

Question: What about the “subjects with serum cmax concentrations above the threshold (150 μM)” value ([2]; 99 mg group) of the same molecule?
Answer: 4 of 7

Question: What about the “subjects with serum cmax concentrations above the threshold (150 μM)” value ([2]; 150 mg group) of the same molecule?
Answer: 3 of 4

Question: And the Cmax ([2]; both sexes, oral, approximation from pharmacokinetic, viral load and tolerability findings, read-out: serum cmax an effective and tolerable regimen may have to achieve)?
Answer: 150 to 275 µM

Question: What about the Cmax ([2]; both sexes, po, 33 mg/kg, 99 mg group, first oral dose 33 mg/kg, read-out: cmax, range within group) of the same molecule?
Answer: 53 to 314 µM

Question: What about the Cmax ([2]; both sexes, po, 50 mg/kg, 150 mg group, first oral dose 50 mg/kg, read-out: cmax, range within group) of the same molecule?
Answer: 128 to 285 µM

Question: And the Cmax ([2]; oral, 99 mg, Subject 2, 99 mg group, read-out: cmax)?
Answer: 314 µM

Question: And the Cmax ([2]; oral, 150 mg, Subject 19, 150 mg group, read-out: cmax)?
Answer: 128 µM

Question: And the Cmax ([2]; oral, 150 mg, Subject 22, 150 mg group, read-out: cmax)?
Answer: 285 µM

Question: What about the viability at 200 µM (in vitro) of the same molecule?
Answer: ≥ 95%

Question: And the viability at 200 μM (in vitro)?
Answer: > 95%
